Source: patent publication US6825340B2, “Methods and reagents for inactivating ribonucleases” (Ambion, Inc., priority 1998, dated 2004)

Legend:
[1] = tested on: RNase mixture (RNase A, RNase 1, RNase T1); experiment: Isotopic RNase inactivation assay (radioactive RNA probe, acrylamide gel); assay type: biochemical, human, E. coli and a fungus; details: 20 mM DTT, 60° C. for 20 minutes
Procedure: FIG. 1. DTT-heat inactivation of different RNase concentrations. The RNase mixture was made to different concentrations in 20 mM DTT: 1 mM sodium citrate (pH 6.4). The RNase samples were incubated at 60° C. for 20 minutes. A radioactive RNA probe was added to the treated RNase samples, incubated at 37° C. for 16 hours, fractionated in a denaturing 5% acrylamide gel and exposed to x-ray film.
The inventors routinely perform assays on RNA designed to assess RNase activity in a sample. Two different assays are typically used for the detection of ribonuclease activity, non-isotopic and isotopic. Each assay generates similar data with regard to the sensitivity of detection. In both assays, the inactivation process is typically performed on a mixture of three different ribonucleases: RNase A, RNase 1, and RNase T1. Each ribonuclease is purified from a different species: […], E. coli and a fungus, respectively. The three RNases are very different from each other in their origin, substrate specificity and protein sequence. In this way, the inactivation process can test three completely different but well characterized ribonucleases. The standard stock RNase mixture employed in the following examples is prepared by combining 1 μl RNase 1 (100 U/μl; Ambion), 1 μl RNase cocktail (RNase A, 0.5 U/μl; RNase T1, 20 U/μl, Ambion) and 98 μl water. […]

DNase I = DNase I (Bos taurus, UniProt P00639); experiment: DNase I activity after reducing/heat treatment, plasmid DNA degradation; assay type: biochemical; details: 20 mM reducing reagent in water; DNase I 0.4 units/μl; 60° C. for 20 minutes
Sequence of DNase I (P00639 23-282): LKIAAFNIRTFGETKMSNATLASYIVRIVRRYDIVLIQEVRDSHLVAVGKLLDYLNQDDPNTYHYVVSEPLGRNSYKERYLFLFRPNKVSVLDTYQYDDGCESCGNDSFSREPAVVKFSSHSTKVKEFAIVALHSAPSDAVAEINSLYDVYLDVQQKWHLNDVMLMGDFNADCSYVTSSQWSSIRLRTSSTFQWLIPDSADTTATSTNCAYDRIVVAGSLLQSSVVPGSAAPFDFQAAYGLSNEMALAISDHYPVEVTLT
Procedure: DNase I is commonly used to degrade contaminating DNA in RNA preparations. To test whether the inactivation method affected DNase I activity, DNase I (final concentration of 0.4 units/μl) was added to water containing 20 mM DTT, DTE or β-mercaptoethanol. The mixture was incubated at 60° C. for 20 minutes. After the heat treatment, the DNase I activity was tested by incubating the treated DNase I with plasmid DNA (0.2 μg/μl ) at 37° C. for one hour followed by electrophoresis in a 1% agarose gel.

[2] = tested on: unknown RNase in alkaline phosphatase storage solution; experiment: Isotopic assay of RNase activity in alkaline phosphatase storage solution; assay type: biochemical; details: 60° C. for 20 minutes
Procedure: The isotopic RNase assay uses a radioactive RNA synthesized by in vitro transcription as the RNA substrate. The RNA used in the following examples was 1.9 or 4.0 kb in length. The radioactive RNA was synthesized using a T7 MEGAscript™ transcription kit (Ambion, Inc.). The in vitro transcription reaction mixture contained 1.0 μg of linearized DNA template, 2 μl of 10× transcription buffer, 1 μl of UTP[α-^32P] (800 Ci/mmol), 2 μl of each 75 mM ribonucleotide and 2 μl of the T7 RNA polymerase mix, final volume of 20 μl. The reaction was incubated at 37° C. for 3 hours. The transcript was precipitated with 7.5 M LiCl and resuspended in 0.1 ml of 1 mM sodium citrate (pH 6.6) or RNase free water.
2 μl of the RNA probe was incubated with the test sample in a final volume of 10 μl for about 16 hours at 37° C. After incubation, the RNA was fractionated in a denaturing 6 M urea 5% acrylamide gel and then the gel was exposed to x-ray film. Untreated RNA was also fractionated as a control with the test samples for comparative purposes. […] RNase activity was indicated by the intensity of the RNA decreasing and by the appearance of smearing below the intact RNA. […]
A commercial solution of unknown composition to the inventors designed to stabilize the storage of alkaline phosphatase was detected to have RNase activity using the isotopic assay. […]

O[C@H](CS)[C@H](O)CS [DTT, dithiothreitol]
concentration of RNase mixture completely inactivated ([1]; 1 mM sodium citrate (pH 6.4), isotopic assay): up to 200 ng/ml
RNase inactivation in different buffers and solutions ([1]; RNase mixture 200 ng/ml, 17 solutions, isotopic): inactivated RNase activity in all of buffers and solutions tested
DNase I activity after reducing/heat treatment (DNase I): not affected
RNase activity of alkaline phosphatase storage solution ([2]; 2 mM DTT): no detectable RNase activity
RNase activity of alkaline phosphatase storage solution ([2]; 5 mM DTT): no detectable RNase activity
